Tests used:
Assay type in all cases: in vivo, human
[1] = Drug-related toxicities in HCC patients on oral sorafenib; details: 400 mg bid oral
Procedure: (§1) Patients with inoperable hepatocellular carcinoma (HCC), no prior systemic treatment, and Child-Pugh (CP) score of A or B, received oral sorafenib at 400 mg bid continuously in 4-week cycles. Tumor response was assessed every two cycles using modified WHO criteria and independent radiologic review. Plasma samples were collected to evaluate the pharmacokinetics (PK) of sorafenib. Biomarker assays were performed in selected patients. These included phospho-ERK levels via immunohistochemistry in pretreatment biopsies, plasma HER-2/neu analysis, plasma protein proteomics via mass spectrometry, and blood cell RNA expression patterns via Affymetrix GeneChip microarray analysis.

[2] = Pharmacokinetics of sorafenib in plasma of HCC patients; details: Child-Pugh A versus B HCC patients, 400 mg bid oral
Procedure: as §1

[3] = system: inoperable hepatocellular carcinoma (HCC); assay: Tumor response, TTP and survival in patients with inoperable hepatocellular carcinoma on oral sorafenib; details: 400 mg bid oral
Procedure: as §1

[4] = 137 HCC patients, independent radiologic review

pharmacokinetic differences between CP A and B patients [2]: no pharmacokinetic differences
Substance: N-[4-chloro-3-(trifluoromethyl)phenyl]-N′-{4-[2-carbamoyl-1-oxo-(4-pyridyloxy)]phenyl}urea [sorafenib]
grade ¾ drug-related toxicity leading to dose delay and/or modification: diarrhea [1]: 4.4%
grade ¾ drug-related toxicity leading to dose delay and/or modification: fatigue [1]: 5.8%
grade ¾ drug-related toxicity leading to dose delay and/or modification: hand-foot skin reaction [1]: 5.1%
patients who achieved a partial response ([3]; 137 HCC patients, continuous 4-week cycles, independent radiologic review, modified WHO criteria): 2.2%
patients who achieved a minor response [3, 4]: 5.8%
patients with stable disease for at least 16 weeks as best response [3, 4]: 33.6%
median overall survival ([3]; HCC patients): 9.2 months
median TTP ([3]; investigator-assessed, HCC patients): 4.2 months
